Reference: PMC6407578, “Synthesis and biological evaluation of ursolic acid derivatives bearing triazole moieties as potential anti-Toxoplasma gondii agents” (Journal of Enzyme Inhibition and Medicinal Chemistry, 2019)

How the values were obtained:
HeLa cells = assay: Cytotoxicity on HeLa host cells (MTT); assay type: cell-based; conditions: Homo sapiens, HeLa, median toxicity dose, cytotoxicity against host cells, 24 h
Procedure: (§1) The cytotoxicity of compounds was determined using the previously published thiazolyl blue-based colorimetric method. For this, HeLa cells were used as host cells and their ability to resist invasion by T. gondii RH strain tachyzoites in vitro was checked. The cells were plated in 96-well plates at an appropriate density to ensure exponential growth throughout the experimental period (3 × 10^3 cells per well) and then allowed to adhere for 24 h at 37 °C. The cells were infected with T. gondii (1.5 × 10^4 tachyzoites/well), followed by incubation for 24 h. All compounds were prepared in dimethyl sulfoxide (DMSO) at a stock concentration of 100 mM. Serial dilutions (1–1000 μM) of each compound were tested. Spiramycin was used as a positive control. After 24 h of incubation, 10 μL of MTT solution were added to each well and cells were incubated for a further 2 h. The optical density (OD) was read on a microplate reader at a wavelength of 492 nm. The IC50 in HeLa cells, IC50 in T. gondii and selectivity index were calculated using Microsoft Excel.

[1] = tested on: T. gondii RH strain tachyzoites; assay: In vitro T. gondii growth inhibition in HeLa host cells (MTT); assay type: cell-based, Toxoplasma gondii; conditions: for IC50: Toxoplasma gondii, median inhibitory concentration, tachyzoite inhibition, HeLa host cells, 24 h; for SI (selectivity index): IC50 in HeLa cells/IC50 in T. gondii
Procedure: as §1

COc1ccc(-n2cc(CNC(=O)COC(=O)[C@]34CC[C@@H](C)[C@H](C)[C@H]3C3=CC[C@@H]5[C@@]6(C)CCC(O)C(C)(C)[C@@H]6CC[C@@]5(C)[C@]3(C)CC4)nn2)cc1 (stereo partly drawn) [2c, (1S,2R,4aS,6aS,6bR,8aR,12aR,12bR,14bS)-2-((1–(4-methoxyphenyl)-1H-1,2,3-triazol-4-yl)methylamino)-2-oxoethyl-10-hydroxy-1,2,6a,6b,9,9,12a-heptamethyl-1,2,3,4,4a,5,6,6a,6b,7,8,8a,9,10,11,12,12a,12b,13,14b-icosahydropicene-4a-carboxylate]
IC50 (HeLa cells): > 1000 µM
IC50 [1]: > 1000 µM
melting point: 180 to 181 °C

C[C@H]1[C@H](C)CC[C@]2(C(=O)OCCn3cnnc3-c3ccc(Cl)cc3)CC[C@]3(C)C(=CC[C@@H]4[C@@]5(C)CCC(O)C(C)(C)[C@@H]5CC[C@]43C)[C@H]12 (stereo partly drawn) [3b, 2 –(3-(4-chlorophenyl)-4H-1,2,4-triazol-4-yl)ethyl(1S,2R,4aS,6aS,6bR,8aR,12aR,12bR,14bS)-10-hydroxy-1,2,6a,6b,9,9,12a-heptamethyl-1,3,4,5,6,6a,6b,7,8,8a,9,10,11,12,12a,12b,13,14b-octadecahydropicene-4a(2H)-carboxylate]
IC50 (HeLa cells): 2.4 µM
SI (selectivity index) [1]: 0.36
IC50 [1]: 6.7 µM
melting point: 245 to 246 °C

C[C@H]1[C@H](C)CC[C@]2(C(=O)O)CC[C@]3(C)C(=CC[C@@H]4[C@@]5(C)C/C(=C\c6cn(-c7ccccc7F)nn6)C(=O)C(C)(C)[C@@H]5CC[C@]43C)[C@H]12 [1b, (1S,2R,4aS,6aS,6bR,8aR,12aR,12bR,14bS,E)-11-((1–(2-fluorophenyl)-1H-1,2,3-triazol-4-yl)methylene)-1,2,6a,6b,9,9,12a-heptamethyl-10-oxo-1,3,4,5,6,6a,6b,7,8,8a,9,10,11,12,12a,12b,13,14b-octadecahydropicene-4a(2H)-carboxylic acid]
IC50 (HeLa cells): 420 µM
SI (selectivity index) [1]: 0.59
IC50 [1]: 712 µM
melting point: > 250 °C

COc1ccc(-c2nncn2CCOC(=O)[C@]23CC[C@@H](C)[C@H](C)[C@H]2C2=CC[C@@H]4[C@@]5(C)CCC(O)C(C)(C)[C@@H]5CC[C@@]4(C)[C@]2(C)CC3)cc1 (stereo partly drawn) [3e, 2 –(3-(4-methoxyphenyl)-4H-1,2,4-triazol-4-yl)ethyl(1S,2R,4aS,6aS,6bR,8aR,12aR,12bR,14bS)-10-hydroxy-1,2,6a,6b,9,9,12a-heptamethyl-1,3,4,5,6,6a,6b,7,8,8a,9,10,11,12,12a,12b,13,14b-octadecahydropicene-4a(2H)-carboxylate]
IC50 (HeLa cells): 78.2 µM
SI (selectivity index) [1]: 0.67
IC50 [1]: 116 µM
melting point: 233 to 235 °C

C[C@H]1[C@H](C)CC[C@]2(C(=O)OCC(=O)NCc3cn(-c4ccccc4)nn3)CC[C@]3(C)C(=CC[C@@H]4[C@@]5(C)CCC(O)C(C)(C)[C@@H]5CC[C@]43C)[C@H]12 (stereo partly drawn) [2a, (1S,2R,4aS,6aS,6bR,8aR,12aR,12bR,14bS)-2-oxo-2-((1-phenyl-1H-1,2,3-triazol-4-yl)methylamino)ethyl-10-hydroxy-1,2,6a,6b,9,9,12a-heptamethyl-1,2,3,4,4a,5,6,6a,6b,7,8,8a,9,10,11,12,12a,12b,13,14b-icosahydropicene-4a-carboxylate]
IC50 (HeLa cells): 837 µM
IC50 [1]: > 1000 µM
melting point: 170 to 172 °C

C[C@H]1[C@H](C)CC[C@]2(C(=O)OCC(=O)NCc3cn(-c4ccc(Cl)cc4)nn3)CC[C@]3(C)C(=CC[C@@H]4[C@@]5(C)CCC(O)C(C)(C)[C@@H]5CC[C@]43C)[C@H]12 (stereo partly drawn) [2b, (1S,2R,4aS,6aS,6bR,8aR,12aR,12bR,14bS)-2-((1–(4-chlorophenyl)-1H-1,2,3-triazol-4-yl)methylamino)-2-oxoethyl-10-hydroxy-1,2,6a,6b,9,9,12a-heptamethyl-1,2,3,4,4a,5,6,6a,6b,7,8,8a,9,10,11,12,12a,12b,13,14b-icosahydropicene-4a-carboxylate]
IC50 (HeLa cells): 329 µM
IC50 [1]: > 1000 µM
melting point: 176 to 178 °C

C[C@H]1[C@H](C)CC[C@]2(C(=O)OCCn3cnnc3-c3ccccc3)CC[C@]3(C)C(=CC[C@@H]4[C@@]5(C)CCC(O)C(C)(C)[C@@H]5CC[C@]43C)[C@H]12 (stereo partly drawn) [3a, 2 –(3-phenyl-4H-1,2,4-triazol-4-yl)ethyl(1S,2R,4aS,6aS,6bR,8aR,12aR,12bR,14bS)-10-hydroxy-1,2,6a,6b,9,9,12a-heptamethyl-1,3,4,5,6,6a,6b,7,8,8a,9,10,11,12,12a,12b,13,14b-octadecahydropicene-4a(2H)-carboxylate]
IC50 (HeLa cells): 102 µM
SI (selectivity index) [1]: 1.15
IC50 [1]: 88 µM

C[C@H]1[C@H](C)CC[C@]2(C(=O)O)CC[C@]3(C)C(=CC[C@@H]4[C@@]5(C)C/C(=C\c6cn(-c7ccccc7I)nn6)C(=O)C(C)(C)[C@@H]5CC[C@]43C)[C@H]12 [1h, (1S,2R,4aS,6aS,6bR,8aR,12aR,12bR,14bS,E)-11-((1–(2-iodophenyl)-1H-1,2,3-triazol-4-yl)methylene)-1,2,6a,6b,9,9,12a-heptamethyl-10-oxo-1,3,4,5,6,6a,6b,7,8,8a,9,10,11,12,12a,12b,13,14b-octadecahydropicene-4a(2H)-carboxylic acid]
IC50 (HeLa cells): 230 µM
SI (selectivity index) [1]: 0.84
IC50 [1]: 274 µM

C[C@H]1[C@H](C)CC[C@]2(C(=O)O)CC[C@]3(C)C(=CC[C@@H]4[C@@]5(C)C/C(=C\c6cn(-c7ccc(Cl)c(Cl)c7)nn6)C(=O)C(C)(C)[C@@H]5CC[C@]43C)[C@H]12 [1f, (1S,2R,4aS,6aS,6bR,8aR,12aR,12bR,14bS,E)-11-((1–(3,4-dichlorophenyl)-1H-1,2,3-triazol-4-yl)methylene)-1,2,6a,6b,9,9,12a-heptamethyl-10-oxo-1,3,4,5,6,6a,6b,7,8,8a,9,10,11,12,12a,12b,13,14b-octadecahydropicene-4a(2H)-carboxylic acid]
IC50 (HeLa cells): 408 µM
SI (selectivity index) [1]: 0.88
IC50 [1]: 462 µM
melting point: > 250 °C

COc1ccccc1-n1cc(/C=C2\C[C@]3(C)[C@H]4CC=C5[C@@H]6[C@@H](C)[C@H](C)CC[C@]6(C(=O)O)CC[C@@]5(C)[C@]4(C)CC[C@H]3C(C)(C)C2=O)nn1 [1i, (1S,2R,4aS,6aS,6bR,8aR,12aR,12bR,14bS,E)-11-((1–(2-methoxyphenyl)-1H-1,2,3-triazol-4-yl)methylene)-1,2,6a,6b,9,9,12a-heptamethyl-10-oxo-1,3,4,5,6,6a,6b,7,8,8a,9,10,11,12,12a,12b,13,14b-octadecahydropicene-4a(2H)-carboxylic acid]
IC50 (HeLa cells): > 1000 µM
IC50 [1]: > 1000 µM
melting point: > 250 °C

C[C@H]1[C@H](C)CC[C@]2(C(=O)OCC(=O)NCc3cn(-c4ccc(Cl)c(Cl)c4)nn3)CC[C@]3(C)C(=CC[C@@H]4[C@@]5(C)CCC(O)C(C)(C)[C@@H]5CC[C@]43C)[C@H]12 (stereo partly drawn) [2e, (1S,2R,4aS,6aS,6bR,8aR,12aR,12bR,14bS)-2-((1–(3,4-dichlorophenyl)-1H-1,2,3-triazol-4-yl)methylamino)-2-oxoethyl-10-hydroxy-1,2,6a,6b,9,9,12a-heptamethyl-1,2,3,4,4a,5,6,6a,6b,7,8,8a,9,10,11,12,12a,12b,13,14b-icosahydropicene-4a-carboxylate]
IC50 (HeLa cells): > 1000 µM
IC50 [1]: > 1000 µM
melting point: 203 to 204 °C

COc1cc(-n2cc(/C=C3\C[C@]4(C)[C@H]5CC=C6[C@@H]7[C@@H](C)[C@H](C)CC[C@]7(C(=O)O)CC[C@@]6(C)[C@]5(C)CC[C@H]4C(C)(C)C3=O)nn2)cc(OC)c1OC [1j, (1S,2R,4aS,6aS,6bR,8aR,12aR,12bR,14bS,E)-1,2,6a,6b,9,9,12a-heptamethyl-10-oxo-11-((1–(3,4,5-trimethoxyphenyl)-1H-1,2,3-triazol-4-yl)methylene)-1,3,4,5,6,6a,6b,7,8,8a,9,10,11,12,12a,12b,13,14b-octadecahydropicene-4a(2H)-carboxylic acid]
IC50 (HeLa cells): 354 µM
SI (selectivity index) [1]: 1.17
IC50 [1]: 301 µM

C[C@H]1[C@H](C)CC[C@]2(C(=O)O)CC[C@]3(C)C(=CC[C@@H]4[C@@]5(C)C/C(=C\c6cn(-c7ccccc7Br)nn6)C(=O)C(C)(C)[C@@H]5CC[C@]43C)[C@H]12 [1g, (1S,2R,4aS,6aS,6bR,8aR,12aR,12bR,14bS,E)-11-((1–(2-bromophenyl)-1H-1,2,3-triazol-4-yl)methylene)-1,2,6a,6b,9,9,12a-heptamethyl-10-oxo-1,3,4,5,6,6a,6b,7,8,8a,9,10,11,12,12a,12b,13,14b-octadecahydropicene-4a(2H)-carboxylic acid]
IC50 (HeLa cells): 240 µM
SI (selectivity index) [1]: 0.80
IC50 [1]: 302 µM

C[C@H]1[C@H](C)CC[C@]2(C(=O)OCCn3cnnc3-c3ccc(F)cc3)CC[C@]3(C)C(=CC[C@@H]4[C@@]5(C)CCC(O)C(C)(C)[C@@H]5CC[C@]43C)[C@H]12 (stereo partly drawn) [3c, 2 –(3-(4-fluorophenyl)-4H-1,2,4-triazol-4-yl)ethyl(1S,2R,4aS,6aS,6bR,8aR,12aR,12bR,14bS)-10-hydroxy-1,2,6a,6b,9,9,12a-heptamethyl-1,3,4,5,6,6a,6b,7,8,8a,9,10,11,12,12a,12b,13,14b-octadecahydropicene-4a(2H)-carboxylate]
IC50 (HeLa cells): 88.2 µM
SI (selectivity index) [1]: 1.44
IC50 [1]: 61.4 µM
